From patent US12653892B2, “Composition and method for new therapeutic agents including guanidinium-presenting dendrimers and branched structures” (priority 2020, dated 2026)
In brackets after ≈: the same amount, converted by molar mass.

Assays:
[1] = test system: S. aureus ATCC 29213; assay: MIC by broth microdilution, S. aureus ATCC 29213; type: cell-based; conditions: S. aureus (ATCC 29213), Mueller Hinton Broth, polypropylene plate; for MIC, Antibiotic +NH2-triguan-6C / MIC, Antibiotic +NO2-triamine-2C / MIC, Antibiotic +NO2-triamine-6C: non-covalent mixture; for MIC: Staphylococcus aureus, ATCC29213, 20 h, read-out: MIC, Antibiotic Alone
Protocol: (§1) Methods—Determination of MICs: MICs for S. aureus, E. faecium, E. coli, P aeruginosa, A. baumannii, K. pneumoniae were determined using broth microdilution in accordance with CLSI methods (Wiegand, I.; Hilpert, K.; Hancock, R. E. W. Agar and Broth Dilution Methods to Determine the Minimal Inhibitory Concentration (MIC) of Antimicrobial Substances. Nat. Protoc. 2008, 3, 163-175). One day prior to each MIC experiment, bacterial strains were streaked for single colonies on TSA plates from frozen glycerol stocks stored at −80° C. Three to five colonies from each plate were harvested with a disposable inoculating loop and resuspended in 500 μL of PBS to create a bacterial suspension. Alternatively, a single colony of the appropriate bacterial strain was added to 4 mL TSB for overnight growth at 37° C. with 200 rpm shaking to create a stationary phase bacterial suspension. The suspension was diluted in PBS to an OD600 of 0.1 (˜[…] CFU/ml), and the OD 0.1 suspension was diluted 1:100 in Mueller Hinton broth (MHB, Difco 257530) just prior to inoculating the 96-well polypropylene treatment plate (Costar 3879). A 50 μL portion of inoculum was added to a treatment plate containing 2-fold serial dilutions of compound in MHB (50 μL of treatment/well) to lend a final total volume of 100 μL/well and a final inoculum density of ˜5×10^5 CFU/ml. The completed assay plate was sealed with Parafilm, placed in a lidded plastic tray lined with moistened paper towels, and incubated at 37° C. for approximately 20 hours. The MIC was read as the lowest treatment concentration where no bacterial growth occurred, as determined by OD600 measurements on a microplate reader. If a different plate or media type was used for a particular test, this is noted below the respective table.

[2] = test system: S. aureus ATCC 29213; conditions: cited from earlier work
[3] = test system: E. coli ATCC 25922; conditions: cited from earlier work
[4] = test system: E. coli ATCC 25922; assay: MIC by broth microdilution, E. coli ATCC 25922; type: cell-based; conditions: E. coli (ATCC 25922)
Protocol: as §1

CO[C@H]1/C=C/O[C@@]2(C)Oc3c(C)c(O)c4c(O)c(c(/C=N/N5CCN(C)CC5)c(O)c4c3C2=O)NC(=O)/C(C)=C\C=C\[C@H](C)[C@H](O)[C@@H](C)[C@@H](O)[C@@H](C)[C@H](OC(C)=O)[C@@H]1C [Rifampicin]
MIC, Antibiotic +NH2-triguan-6C [1]: 0.016 µM (≈ 0.0132 µg/mL) | MIC, Antibiotic +NO2-triamine-2C [1]: 0.016 µM (≈ 0.0132 µg/mL) | MIC, Antibiotic +NO2-triamine-6C [1]: 0.016 µM (≈ 0.0132 µg/mL) | MIC [1]: 0.016 µM (≈ 0.0132 µg/mL)

O=C(O)c1cn(C2CC2)c2cc(N3CCNCC3)c(F)cc2c1=O [Ciprofloxacin]
Literature MIC [2]: 0.4 to 1.5 µM

CC1(C)S[C@@H]2[C@H](NC(=O)[C@H](N)c3ccccc3)C(=O)N2[C@H]1C(=O)O [Ampicillin]
MIC, Antibiotic +NH2-triguan-6C [1]: 4 µM (≈ 1.4 µg/mL) | MIC, Antibiotic +NO2-triamine-2C [1]: 4 µM (≈ 1.4 µg/mL) | MIC, Antibiotic +NO2-triamine-6C [1]: 4 µM (≈ 1.4 µg/mL) | MIC [1]: 2 µM (≈ 0.699 µg/mL) | Literature MIC [2]: 1.4 µM | Literature MIC [3]: 5 to 22 µM | MIC, Antibiotic Alone [4]: 16 µM (≈ 5.59 µg/mL) | MIC, Antibiotic +NH2-triguan-6C ([4]; non-covalent mixture): 16 µM (≈ 5.59 µg/mL) | MIC, Antibiotic +NO2-triamine-2C ([4]; non-covalent mixture): 16 µM (≈ 5.59 µg/mL) | MIC, Antibiotic +NO2-triamine-6C ([4]; non-covalent mixture): 16 µM (≈ 5.59 µg/mL)
